Test system: human dermal fibroblasts
Assay: Human dermal fibroblast cells (hDFC) proliferation, cell viability assay (CellTiter-Glo, manual cell counting); note: test concentration or dose not given here
Format: cell-based
Details: hDFCs proliferation; control is DMSO

| SMILES | Activity (Percent Increase Proliferation of hFDPCs (%)) |
| --- | --- |
| CC1=NN(C=O)C(C)(C)C1 [VII-5, 3,5,5-trimethyl-4H-pyrazole-1-carbaldehyde] | D (increased proliferation of hFDPCs equals to or larger than 8%) |
| CCNC(=O)NC1CN(Cc2ccccc2N(C)C)C[C@@H]1OC (stereo partly drawn) [VII-38, 1-[(4S)-1-[[2-(dimethylamino)phenyl]methyl]-4-methoxypyrrolidin-3-yl]-3-ethylurea] | D (increased proliferation of hFDPCs equals to or larger than 8%) |
| COc1ccc(C(=O)NC(C(=O)NC(C)Cn2ccnc2)C(C)C)cc1 (stereo not drawn) [III-5, N-[1-(1-imidazol-1-ylpropan-2-ylamino)-3-methyl-1-oxobutan-2-yl]-4-methoxybenzamide] | B (increased proliferation of hFDPCs equals to or larger than 1% and less than 4%) |
| CCNC(=O)CCSc1nc(C)cc(C)n1 [VII-19, 3-(4,6-dimethylpyrimidin-2-yl)sulfanyl-N-ethylpropanamide] | C (increased proliferation of hFDPCs equals to or larger than 4% and less than 8%) |
| O=C(O)CNC(=O)c1ccc2[nH]c3c(c2c1)CCCC3 [IV-6, 2-(6,7,8,9-tetrahydro-5H-carbazole-3-carbonylamino)acetic acid] | B (increased proliferation of hFDPCs equals to or larger than 1% and less than 4%) |
| Cc1ccc(-c2nnc(SCC(=O)N3CCCC3)n2N)cc1 [I-3, 2-[[4-amino-5-(4-methylphenyl)-1,2,4-triazol-3-yl]sulfanyl]-1-pyrrolidin-1-ylethanone] | C (increased proliferation of hFDPCs equals to or larger than 4% and less than 8%) |
| NN1CCNCC1 [VII-2, piperazin-1-amine] | D (increased proliferation of hFDPCs equals to or larger than 8%) |
| COc1ccc(CCCNC(=O)C(C)C)cc1 [II-6, N-[3-(4-methoxyphenyl)propyl]-2-methylpropanamide] | C (increased proliferation of hFDPCs equals to or larger than 4% and less than 8%) |
| CN1CCCNS1(=O)=O [VII-9, 2-methyl-1,2,6-thiadiazinane 1,1-dioxide] | D (increased proliferation of hFDPCs equals to or larger than 8%) |
| CC(=O)NC1CCN(Cc2ccccc2N(C)C)CC1 [VII-20, N-[1-[[2-(dimethylamino)phenyl]methyl]piperidin-4-yl]acetamide] | D (increased proliferation of hFDPCs equals to or larger than 8%) |
| CCC(N)Cn1ccnc1 (stereo not drawn) [VII-29, 1-imidazol-1-ylbutan-2-amine] | A (increased proliferation of hFDPCs of less than 1%) |
| CC(NC(=O)CNC(=O)c1cccs1)c1ccccc1 (stereo not drawn) [VI-1, N-[2-oxo-2-(1-phenylethylamino)ethyl]thiophene-2-carboxamide] | D (increased proliferation of hFDPCs equals to or larger than 8%) |
| CCn1c(SCC(=O)N2CCCCCC2)nnc1-c1ccncc1 [I-5, 1-(azepan-1-yl)-2-[(4-ethyl-5-pyridin-4-yl-1,2,4-triazol-3-yl)sulfanyl]ethanone] | C (increased proliferation of hFDPCs equals to or larger than 4% and less than 8%) |
| CCOC(OCC)OCC [VII-6, diethoxymethoxyethane] | D (increased proliferation of hFDPCs equals to or larger than 8%) |
| COCCOCCCn1c(=O)[nH]c2ccccc2c1=O [V-5, 3-[3-(2-methoxyethoxy)propyl]-1H-quinazoline-2,4-dione] | D (increased proliferation of hFDPCs equals to or larger than 8%) |
| CC(C)n1cnnc1 [VII-27, 4-propan-2-yl-1,2,4-triazole] | D (increased proliferation of hFDPCs equals to or larger than 8%) |
| CN(C)c1ccccc1CN1CCN(C(=O)N2CCOCC2)CC1 [VII-23, [4-[[2-(dimethylamino)phenyl]methyl]piperazin-1-yl]-morpholin-4-ylmethanone] | D (increased proliferation of hFDPCs equals to or larger than 8%) |
| CCn1c(NN)nc2ccccc2c1=O [VII-24, 3-ethyl-2-hydrazinylquinazolin-4-one] | D (increased proliferation of hFDPCs equals to or larger than 8%) |
| O[C@H]1CCNC[C@]12CCCNC2 [VII-7, (5S,6R)-2,8-diazaspiro[5.5]undecan-5-ol] | D (increased proliferation of hFDPCs equals to or larger than 8%) |
| CCC(=O)NC(C)c1ccccc1 (stereo not drawn) [II-4, N-(1-phenylethyl)propanamide] | C (increased proliferation of hFDPCs equals to or larger than 4% and less than 8%) |
| COCCNC(=O)c1ccc2[nH]c3c(c2c1)CCCC3 [IV-3, N-(2-methoxyethyl)-6,7,8,9-tetrahydro-5H-carbazole-3-carboxamide] | D (increased proliferation of hFDPCs equals to or larger than 8%) |

| SMILES | Activity (Percent Increase Proliferation of hFDPCs (%)) |
| --- | --- |
| CC(N)c1nnnn1C (stereo not drawn) [VII-15, 1-(1-methyltetrazol-5-yl)ethanamine] | D (increased proliferation of hFDPCs equals to or larger than 8%) |
| CCN1C(=S)N(C)NC1(C)C [VII-1, 4-ethyl-2,5,5-trimethyl-1,2,4-triazolidine-3-thione] | D (increased proliferation of hFDPCs equals to or larger than 8%) |
| COc1ccc(CN2CCN(C(=O)Cn3ccnc3)CC2)cc1 [VII-33, 2-imidazol-1-yl-1-[4-[(4-methoxyphenyl)methyl]piperazin-1-yl]ethanone] | C (increased proliferation of hFDPCs equals to or larger than 4% and less than 8%) |
| CC1(C)CC(C(N)=O)C(C)(C)N1 (stereo not drawn) [VII-17, 2,2,5,5-tetramethylpyrrolidine-3-carboxamide] | D (increased proliferation of hFDPCs equals to or larger than 8%) |
| NC1CSCC1O (stereo not drawn) [VII-3, 4-aminothiolan-3-ol] | D (increased proliferation of hFDPCs equals to or larger than 8%) |
| CCN(CC)CC(=O)NC(C)c1ccccc1 (stereo not drawn) [II-3, 2-(diethylamino)-N-(1-phenylethyl)acetamide] | A (increased proliferation of hFDPCs of less than 1%) |
| O=C(O)CN1CCC(NC(=O)C2CCCc3c2[nH]c2ccccc32)CC1 (stereo not drawn) [IV-5, 2-[4-(2,3,4,9-tetrahydro-1H-carbazole-1-carbonylamino)piperidin-1-yl]acetic acid] | D (increased proliferation of hFDPCs equals to or larger than 8%) |
| COc1ccc(CNC(=O)C(=O)NC(C)c2ccccc2)cc1 (stereo not drawn) [III-3, N-[(4-methoxyphenyl)methyl]-N′-(1-phenylethyl)oxamide] | B (increased proliferation of hFDPCs equals to or larger than 1% and less than 4%) |
| CN(C)c1ccccc1CN1CCCCC1C(=O)O (stereo not drawn) [VII-16, 1-[[2-(dimethylamino)phenyl]methyl]piperidine-2-carboxylic acid] | D (increased proliferation of hFDPCs equals to or larger than 8%) |
| CCCNC(=O)CCNC(=O)C(C)Oc1ccc(OC)cc1 (stereo not drawn) [VII-25, 2-(4-methoxyphenoxy)-N-[3-oxo-3-(propylamino)propyl]propanamide] | B (increased proliferation of hFDPCs equals to or larger than 1% and less than 4%) |
| CN(C)CCn1c(=O)[nH]c2ccccc2c1=O [V-3, 3-[2-(dimethylamino)ethyl]-1H-quinazoline-2,4-dione] | A (increased proliferation of hFDPCs of less than 1%) |
| COc1cc(OC)nc(OC)n1 [VII-14, 2,4,6-trimethoxypyrimidine] | B (increased proliferation of hFDPCs equals to or larger than 1% and less than 4%) |
| CCOC(Cn1ccnc1)OCC [VII-30, 1-(2,2-diethoxyethyl)imidazole] | D (increased proliferation of hFDPCs equals to or larger than 8%) |
| NC(=O)C1CCCCC1NC(=O)c1ccc(Cl)cn1 (stereo not drawn) [VII-21, N-(2-carbamoylcyclohexyl)-5-chloropyridine-2-carboxamide] | D (increased proliferation of hFDPCs equals to or larger than 8%) |
| CC(O)CNC(=O)c1ccc2[nH]c3c(c2c1)CCCC3 (stereo not drawn) [IV-4, N-(2-hydroxypropyl)-6,7,8,9-tetrahydro-5H-carbazole-3-carboxamide] | C (increased proliferation of hFDPCs equals to or larger than 4% and less than 8%) |
| C=CCn1c(SCC(=O)N2CCCCC2)nnc1-c1ccncc1 [I-6, 1-piperidin-1-yl-2-[(4-prop-2-enyl-5-pyridin-4-yl-1,2,4-triazol-3-yl)sulfanyl]ethanone] | C (increased proliferation of hFDPCs equals to or larger than 4% and less than 8%) |
| COc1ccccc1CN1CCNC(=O)C1CC(=O)N(C)C (stereo not drawn) [VII-22, 2-[1-[(2-methoxyphenyl)methyl]-3-oxopiperazin-2-yl]-N,N-dimethylacetamide] | D (increased proliferation of hFDPCs equals to or larger than 8%) |
| Cn1c(SCC(=O)N2CCCCC2)nnc1-c1ccccc1 [I-7, 2-[(4-methyl-5-phenyl-1,2,4-triazol-3-yl)sulfanyl]-1-piperidin-1-ylethanone] | B (increased proliferation of hFDPCs equals to or larger than 1% and less than 4%) |
| CC(NC(=O)C(=O)NC(C)c1ccccc1)c1ccccc1 (stereo not drawn) [III-4, N,N′-bis(1-phenylethyl)oxamide] | B (increased proliferation of hFDPCs equals to or larger than 1% and less than 4%) |
| CN(C)CCCn1c(=O)[nH]c2ccccc2c1=O [V-2, 3-[3-(dimethylamino)propyl]-1H-quinazoline-2,4-dione] | A (increased proliferation of hFDPCs of less than 1%) |
| COCCN(CCCc1ccccc1)C(=O)NC(C)Cn1ccnc1 (stereo not drawn) [VII-31, 3-(1-imidazol-1-ylpropan-2-yl)-1-(2-methoxyethyl)-1-(3-phenylpropyl)urea] | A (increased proliferation of hFDPCs of less than 1%) |

— patent US12564547B2, “Compositions, formulations, and methods for skin treatment” (Oddity Labs, LLC, priority 2022, dated 2026)
